Measured values: patent US8129366B2, “VLA-4 inhibitory drug” (Daiichi Sankyo Company, Limited, priority 2005, dated 2012)

Biological target: T1, hα4 and β1 integrins (Homo sapiens, UniProt P05556+P13612)
T1 construct: expressed in transfected cells; host or cells: CHO cells
Assay: In vitro inhibition of binding between CHO cells expressing hα4 and β1 integrins and Eu3+-hVCAM-1 D1D7-IgG
Details: for Ki: CHO cells expressing hα4 and β1 integrins, Eu3+-hVCAM-1 D1D7-IgG ligand, without HSA; for IC50: in the presence of 3% human serum albumin (HSA final concentration 3%)
Procedure: CHO cells which forcibly expressed hα4 and β1 integrins through transfection thereof, were inoculated into a Costar 3599 plate (3×10^4 cells/100 μl/well), and cultured for two days. The cells in the wells were washed two times with buffer A*, and then Eu^3+-hVCAM-1 D1D7-IgG diluted with assay buffer** to 2 nM was added in an amount of 50 μl/well. The substance under test diluted with 26 DMSO-assay buffer (in the co-presence or absence of 6% human serum albumin) was added in an amount of 50 μl/well (adding separately diluted solution to the wells for performing Scatchard analysis), the contents were stirred for 5 minutes with a plate mixer, and then the plate was left to stand still for one hour at room temperature. The binding inhibitory activity in the presence of human serum albumin (HSA) was examined by diluting the specimen with 26 DMSO-assay buffer containing 6% HSA (SIGMA Corp., c/n A-1653), and adding the resultant (HSA final concentration 3%). After 30 to 60 minutes of the addition of specimen, the plate contents were washed 4 times with buffer A at 4° C., an enhancing reagent (DELFIA SA) was added in an amount of 100 μl/well, and the plate was shaken for 5 minutes using a plate mixer. Subsequently, the fluorescence intensity was measured with a time-resolved fluorometer (DELFIA Wallac). The IC50 of the substance under test (the concentration for 50% inhibition of the binding between CHO cells and Eu^3+-hVCAM-1 D1D7-IgG) was determined from the binding rate obtained from the calculating expression of [(FT−FNS)−(FI−FNS)]/[(FT−FNS)]×100. Here, FT represents the fluorescence intensity of a well not containing the substance under test; FNS represents the fluorescence intensity of a well not containing the substance under test and hVCAM-1 D1D7-IgG; and FI represents the fluorescence intensity of a well containing the substance under test. The Kd value which represents the strength of binding, and Bmax (maximum binding amount) were estimated to be in the range of 0.06 to 20 nM according to the Scatchard analysis method. The evaluation results of the Ki value of the substance under test, and of the IC50 value in the presence of 3% HSA are presented in Tables 2 to 7.
The Ki value was calculated according to the above-described expression. ([L] is the ligand concentration)
[* buffer A: 25 mM HEPES (pH 7.5), 150 mM NaCl, 1 mM Ca^2+, 1 mM Mg^2+, 4 mM Mn2+;
** assay buffer: 25 mM HEPES (pH=7.5), 150 mM NaCl, 1 mM Ca^2+, 1 mM Mg^2+, 4 mM Mn^2+, 0.1% BSA, 20 μM DTPA, with/without 6% ALBUMIN, HUMAN SERUM (C/N A-1653, SIGMA)]

T1 sequence (P13612 34-1032): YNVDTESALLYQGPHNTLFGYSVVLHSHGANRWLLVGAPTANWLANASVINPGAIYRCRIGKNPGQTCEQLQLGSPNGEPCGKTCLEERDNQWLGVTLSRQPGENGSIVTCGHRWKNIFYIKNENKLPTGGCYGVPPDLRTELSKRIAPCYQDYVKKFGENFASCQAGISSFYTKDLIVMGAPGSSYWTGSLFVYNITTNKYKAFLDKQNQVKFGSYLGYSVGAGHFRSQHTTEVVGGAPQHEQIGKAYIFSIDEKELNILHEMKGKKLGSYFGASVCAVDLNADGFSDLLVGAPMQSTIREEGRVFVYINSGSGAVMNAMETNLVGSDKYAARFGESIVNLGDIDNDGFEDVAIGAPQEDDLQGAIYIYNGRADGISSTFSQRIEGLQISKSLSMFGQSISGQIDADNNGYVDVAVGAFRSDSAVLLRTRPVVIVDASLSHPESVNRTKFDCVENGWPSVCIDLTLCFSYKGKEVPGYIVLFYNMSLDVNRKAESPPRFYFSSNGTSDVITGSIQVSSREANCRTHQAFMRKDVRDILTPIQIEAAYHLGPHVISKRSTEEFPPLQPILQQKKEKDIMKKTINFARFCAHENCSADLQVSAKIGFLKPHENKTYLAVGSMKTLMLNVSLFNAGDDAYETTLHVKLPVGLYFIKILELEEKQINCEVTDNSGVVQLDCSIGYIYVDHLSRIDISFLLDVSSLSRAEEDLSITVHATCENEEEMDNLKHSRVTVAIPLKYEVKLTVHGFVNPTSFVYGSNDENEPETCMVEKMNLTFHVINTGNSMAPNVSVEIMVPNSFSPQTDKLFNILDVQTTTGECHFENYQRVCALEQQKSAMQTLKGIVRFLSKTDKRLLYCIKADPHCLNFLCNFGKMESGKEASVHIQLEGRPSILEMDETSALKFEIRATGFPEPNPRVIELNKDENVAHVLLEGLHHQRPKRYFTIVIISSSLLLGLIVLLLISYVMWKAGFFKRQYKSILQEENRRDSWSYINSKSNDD
T1 sequence (P05556 21-798): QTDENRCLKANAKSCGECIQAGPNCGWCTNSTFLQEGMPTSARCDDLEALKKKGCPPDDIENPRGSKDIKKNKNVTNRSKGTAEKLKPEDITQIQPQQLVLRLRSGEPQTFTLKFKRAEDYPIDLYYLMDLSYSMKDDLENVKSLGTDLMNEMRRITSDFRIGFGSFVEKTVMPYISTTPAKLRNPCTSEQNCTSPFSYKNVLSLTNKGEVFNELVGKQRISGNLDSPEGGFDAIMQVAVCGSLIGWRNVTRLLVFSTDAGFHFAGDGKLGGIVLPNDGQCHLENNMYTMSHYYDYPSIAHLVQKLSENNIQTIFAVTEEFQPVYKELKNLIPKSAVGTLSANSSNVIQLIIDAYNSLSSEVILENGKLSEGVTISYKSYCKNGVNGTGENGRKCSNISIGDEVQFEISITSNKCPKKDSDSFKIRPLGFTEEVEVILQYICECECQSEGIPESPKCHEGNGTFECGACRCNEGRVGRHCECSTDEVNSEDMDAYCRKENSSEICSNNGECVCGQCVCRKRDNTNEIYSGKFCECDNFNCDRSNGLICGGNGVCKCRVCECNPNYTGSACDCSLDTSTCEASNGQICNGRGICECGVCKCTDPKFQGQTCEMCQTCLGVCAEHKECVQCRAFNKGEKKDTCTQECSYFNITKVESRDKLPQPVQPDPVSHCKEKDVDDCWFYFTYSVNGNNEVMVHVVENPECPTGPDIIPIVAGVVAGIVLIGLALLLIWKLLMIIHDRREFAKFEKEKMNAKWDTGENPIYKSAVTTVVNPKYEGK

Row | Compound | Ki [nM] | IC50 [nM]
1 | C[C@@H]1CN([C@H]2C[C@@H](CO[C@H]3CC[C@H](C(=O)O)CC3)N(C(=O)Cc3cc(Cl)c(NC(=O)c4coc5ccccc45)cc3F)C2)C[C@H](C)O1 [Example 84, Trans-4-[1-[[4-[(benzo[b]furan-3-ylcarbonyl)amino]-5-chloro-2-fluorophenyl]acetyl]-(4S)-(cis-2,6-dimethylmorpholin-4-yl)-(2S)-pyrrolidinylmethoxy]cyclohexanecarboxylic acid] | 2.4 | 23
2 | C[C@@H]1CN([C@H]2C[C@@H](CO[C@H]3CC[C@H](C(=O)O)CC3)N(C(=O)Cc3ccc(NC(=O)c4cn(C)c5ccccc45)c(Cl)c3)C2)C[C@H](C)O1 [Example 85, Trans-4-[1-[[3-chloro-4-[(1-methyl-1H-indol-3-ylcarbonyl)amino]phenyl]acetyl]-(4S)-(cis-2,6-dimethylmorpholin-4-yl)-(2S)-pyrrolidinylmethoxy]cyclohexanecarboxylic acid] | 2 | 9.2
3 | C[C@@H]1CN([C@H]2C[C@@H](CO[C@H]3CC[C@H](C(=O)O)CC3)N(C(=O)Cc3cc(Cl)c(NC(=O)c4c[nH]c5ccccc45)cc3Cl)C2)C[C@H](C)O1 [Example 89, Trans-4-[1-[[2,5-dichloro-4-[(1H-indol-3-ylcarbonyl)amino]phenyl]acetyl]-(4S)-(cis-2,6-dimethylmorpholin-4-yl)-(2S)-pyrrolidinylmethoxy]cyclohexanecarboxylic acid] | 0.96 | 2.3
4 | C[C@@H]1CN([C@H]2C[C@@H](CO[C@H]3CC[C@H](C(=O)O)CC3)N(C(=O)Cc3cc(Cl)c(NC(=O)c4c[nH]c5ccccc45)cc3F)C2)C[C@H](C)O1 [Example 90, Trans-4-[1-[[5-chloro-2-fluoro-4-[(1H-indol-3-ylcarbonyl)amino]phenyl]acetyl]-(4S)-(cis-2,6-dimethylmorpholin-4-yl)-(2S)-pyrrolidinylmethoxy]cyclohexanecarboxylic acid] | 1.2 | 2.4
5 | CC1CN([C@H]2C[C@@H](CO[C@H]3CC[C@H](C(=O)O)CC3)N(C(=O)Cc3cc(Cl)c(NC(=O)c4cn(C)c5ccccc45)cc3Cl)C2)CC(C)O1 (stereo partly drawn) [Example 91, Trans-4-[1-[[2,5-dichloro-4-[(1-methyl-1H-indol-3-ylcarbonyl)amino]phenyl]acetyl]-(4S)-(2,6-dimethylmorpholin-4-yl)-(2S)-pyrrolidinylmethoxy]cyclohexanecarboxylic acid] | 2.4 | 81
6 | C[C@@H]1CN([C@H]2C[C@@H](CO[C@H]3CC[C@H](C(=O)O)CC3)N(C(=O)Cc3ccc(NC(=O)c4csc5ccccc45)c(Cl)c3)C2)C[C@H](C)O1 [Example 92, Trans-4-[1-[[4-[(benzo[b]thiophen-3-ylcarbonyl)amino]-3-chlorophenyl]acetyl]-(4S)-(cis-2,6-dimethylmorpholin-4-yl)-(2S)-pyrrolidinylmethoxy]cyclohexanecarboxylic acid] | 1.2 | 10
7 | C[C@@H]1COC[C@H](C)N1[C@H]1C[C@@H](CO[C@H]2CC[C@H](C(=O)O)CC2)N(C(=O)Cc2cc(Cl)c(NC(=O)c3cn(C)c4ccccc34)cc2Cl)C1 [Example 93, Trans-4-[1-[[2,5-dichloro-4-[(1-methyl-1H-indol-3-ylcarbonyl)amino]phenyl]acetyl]-(4S)-(cis-3,5-dimethylmorpholin-4-yl)-(2S)-pyrrolidinylmethoxy]cyclohexanecarboxylic acid] | 3.6 | 22
8 | O=C(Nc1cc(Cl)c(CC(=O)N2C[C@@H](N3CCCCC3)C[C@H]2CO[C@H]2CC[C@H](C(=O)O)CC2)cc1Cl)c1csc2ccccc12 [Example 95, Trans-4-[1-[[4-[(benzo[b]thiophen-3-ylcarbonyl)amino]-2,5-dichlorophenyl]acetyl]-(4S)-(piperidin-1-yl)-(2S)-pyrrolidinylmethoxy]cyclohexanecarboxylic acid] | 1.3 | 5.3
9 | Cn1cc(C(=O)Nc2cc(Cl)c(CC(=O)N3C[C@@H](N4CCCCC4)C[C@H]3CO[C@H]3CC[C@H](C(=O)O)CC3)cc2Cl)c2ccccc21 [Example 96, Trans-4-[1-[[2,5-dichloro-4-[(1-methyl-1H-indol-3-ylcarbonyl)amino]phenyl]acetyl]-(4S)-(piperidin-1-yl)-(2S)-pyrrolidinylmethoxy]cyclohexanecarboxylic acid] | 3.9 | 7.4

Next, values leading:

Row | Ki [nM] | IC50 [nM] | Compound
10 | 1.6 | 4.9 | CCO[C@H]1[C@H](N2CCCCC2)CN(C(=O)Cc2cc(Cl)c(NC(=O)c3cn(C)c4ccccc34)cc2F)[C@@H]1CO[C@H]1CC[C@H](C(=O)O)CC1 [Example 97, Trans-4-[1-[[5-chloro-2-fluoro-4-[(1-methyl-1H-indol-3-ylcarbonyl)amino]phenyl]acetyl]-(3R)-ethoxy-(4R)-(piperidin-1-yl)-(2R)-pyrrolidinylmethoxy]cyclohexanecarboxylic acid]
11 | 0.89 | 3 | CC1CCN([C@H]2C[C@@H](CO[C@H]3CC[C@H](C(=O)O)CC3)N(C(=O)Cc3cc(Cl)c(NC(=O)c4csc5ccccc45)cc3F)C2)CC1 [Example 98, Trans-4-[1-[[4-[(benzo[b]thiophen-3-ylcarbonyl)amino]-5-chloro-2-fluorophenyl]acetyl]-(4S)-(4-methylpiperidin-1-yl)-(2S)-pyrrolidinylmethoxy]cyclohexanecarboxylic acid]
12 | 0.91 | 3.9 | O=C(Nc1cc(F)c(CC(=O)N2C[C@@H](N3CCC(F)CC3)C[C@H]2CO[C@H]2CC[C@H](C(=O)O)CC2)cc1Cl)c1csc2ccccc12 [Example 100, Trans-4-[1-[[4-[(benzo[b]thiophen-3-ylcarbonyl)amino]-5-chloro-2-fluorophenyl]acetyl]-(4S)-(4-fluoropiperidin-1-yl)-(2S)-pyrrolidinylmethoxy]cyclohexanecarboxylic acid]
13 | 4 | 17 | Cn1cc(C(=O)Nc2cc(F)c(CC(=O)N3C[C@@H](N4CCC(F)(F)CC4)C[C@H]3CO[C@H]3CC[C@H](C(=O)O)CC3)cc2Cl)c2ccccc21 [Example 101, Trans-4-[1-[[5-chloro-2-fluoro-4-[(1-methyl-1H-indol-3-ylcarbonyl)amino]phenyl]acetyl]-(4S)-(4,4-difluoropiperidin-1-yl)-(2S)-pyrrolidinylmethoxy]cyclohexanecarboxylic acid]
14 | 1.2 | 33 | O=C(Nc1cc(F)c(CC(=O)N2C[C@@H](N3CCC(Oc4ccccc4)CC3)C[C@H]2CO[C@H]2CC[C@H](C(=O)O)CC2)cc1Cl)c1csc2ccccc12 [Example 102]
15 | 4.9 | 13 | COC1CCN([C@H]2C[C@@H](CC[C@H]3CC[C@H](C(=O)O)CC3)N(C(=O)Cc3cc(Cl)c(NC(=O)c4cn(C)c5ccccc45)cc3Cl)C2)CC1 [Example 104, Trans-4-[2-[1-[[2,5-dichloro-4-[(1-methyl-1H-indol-3-ylcarbonyl)amino]phenyl]acetyl]-(4S)-(4-methoxypiperidin-1-yl)-(2S)-pyrrolidinyl]ethyl]cyclohexanecarboxylic acid]
16 | 2 | 15 | CCOC1CCN([C@H]2C[C@@H](CO[C@H]3CC[C@H](C(=O)O)CC3)N(C(=O)Cc3cc(Cl)c(NC(=O)c4coc5ccccc45)cc3Cl)C2)CC1 [Example 105, Trans-4-[1-[[4-[(benzo[b]furan-3-ylcarbonyl)amino]-2,5-dichlorophenyl]acetyl]-(4S)-(4-ethoxypiperidin-1-yl)-(2S)-pyrrolidinylmethoxy]cyclohexanecarboxylic acid]
